Results as given in US8530489B2 (Vertex Pharmaceuticals Incorporated, priority 2006, dated 2013).

Biological target: PLK1 (Homo sapiens, UniProt P53350)
Experiment: PLK1 Inhibition Assay I (radioactive-phosphate incorporation)
Assay type: biochemical
Conditions: Ki(app); PLK1 Inhibition Assay I or II (table does not say which)
Summary of the method: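 Ki(app) values came from non-linear regression of initial rates after background subtraction, with phosphopeptide measured by phosphocellulose filter binding and scintillation counting. PLK1 at 2 nM was preincubated with compound (typically from 10 μM, 2-fold dilutions) for 10 min, then run 240 min at 25° C with 350 μM [γ-33P]ATP and 450 μM peptide substrate in HEPES pH 7.5 buffer.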

PLK1, sequence (P53350 whole entry): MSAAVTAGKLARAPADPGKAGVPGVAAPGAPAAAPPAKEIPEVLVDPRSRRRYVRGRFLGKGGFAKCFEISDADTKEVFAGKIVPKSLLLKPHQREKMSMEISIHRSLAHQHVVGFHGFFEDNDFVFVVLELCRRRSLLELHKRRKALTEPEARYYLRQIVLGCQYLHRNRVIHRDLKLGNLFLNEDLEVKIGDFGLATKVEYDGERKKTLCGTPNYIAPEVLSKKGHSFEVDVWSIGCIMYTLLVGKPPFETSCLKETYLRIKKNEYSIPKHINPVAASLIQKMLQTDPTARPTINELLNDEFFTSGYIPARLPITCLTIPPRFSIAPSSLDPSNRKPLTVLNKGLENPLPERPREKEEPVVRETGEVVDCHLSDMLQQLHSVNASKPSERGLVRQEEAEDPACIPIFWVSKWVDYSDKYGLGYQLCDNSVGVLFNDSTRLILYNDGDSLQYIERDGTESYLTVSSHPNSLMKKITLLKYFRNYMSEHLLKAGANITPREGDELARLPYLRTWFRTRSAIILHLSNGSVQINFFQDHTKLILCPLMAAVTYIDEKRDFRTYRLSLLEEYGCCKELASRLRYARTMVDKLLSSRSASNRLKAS

SMILES | Ki [nM]
CC(Nc1ncc(C#N)c(-c2c[nH]c3ncc(C(F)(F)F)cc23)n1)C1CCN(C(=O)CN)CC1 (stereo not drawn) [Compound I-188, 2-(1-(1-(2-aminoacetyl)piperidin-4-yl)ethylamino)-4-(5-(trifluoromethyl)-1H-pyrrolo[2,3-b]pyridin-3-yl)pyrimidine-5-carbonitrile] | < 3
CC[C@H](O)C(=O)N1CCC([C@@H](C)Nc2ncc(C#N)c(-c3c[nH]c4ncc(C(F)(F)F)cc34)n2)CC1 [Compound I-217, 2-((R)-1-(1-((S)-2-hydroxybutanoyl)piperidin-4-yl)ethylamino)-4-(5-(trifluoromethyl)-1H-pyrrolo[2,3-b]pyridin-3-yl)pyrimidine-5-carbonitrile] | < 3
C[C@@H](Nc1ncc(C#N)c(-c2c[nH]c3ncc(C(F)(F)F)cc23)n1)c1ccc(N2CCN(Cc3ccccc3)CC2)cc1 [Compound I-130, 2-((R)-1-(4-(4-benzylpiperazin-1-yl)phenyl)ethylamino)-4-(5-(trifluoromethyl)-1H-pyrrolo[2,3-b]pyridin-3-yl)pyrimidine-5-carbonitrile] | < 3
N#Cc1cnc(NCc2ccccn2)nc1-c1c[nH]c2ncc(C(F)(F)F)cc12 [Compound I-64, 2-(pyridin-2-ylmethylamino)-4-(5-(trifluoromethyl)-1H-pyrrolo[2,3-b]pyridin-3-yl)pyrimidine-5-carbonitrile] | > 40
CC(Nc1ncc(C#N)c(-c2c[nH]c3ncc(C(F)(F)F)cc23)n1)c1ccc(N2CCC(O)(C(C)C)CC2)nc1 (stereo not drawn) [Compound I-198, 2-(1-(6-(4-hydroxy-4-isopropylpiperidin-1-yl)pyridin-3-yl)ethylamino)-4-(5-(trifluoromethyl)-1H-pyrrolo[2,3-b]pyridin-3-yl)pyrimidine-5-carbonitrile] | 3 to 40
CC(=O)Nc1ccc(CNc2ncc(C#N)c(-c3c[nH]c4ncc(C(F)(F)F)cc34)n2)cc1 [Compound I-72, N-(4-((5-cyano-4-(5-(trifluoromethyl)-1H-pyrrolo[2,3-b]pyridin-3-yl)pyrimidin-2-ylamino)methyl)phenyl)acetamide] | 3 to 40
CC(Nc1ncc(C#N)c(-c2c[nH]c3ncc(C(F)(F)F)cc23)n1)C1CN(C(=O)C(C)(C)O)C1 (stereo not drawn) [Compound I-221, 2-(1-(1-(2-hydroxy-2-methylpropanoyl)azetidin-3-yl)ethylamino)-4-(5-(trifluoromethyl)-1H-pyrrolo[2,3-b]pyridin-3-yl)pyrimidine-5-carbonitrile] | 3 to 40
COc1ccc(CNc2ncc(C#N)c(-c3c[nH]c4ncc(C(F)(F)F)cc34)n2)cc1Cl [Compound I-94, 2-(3-chloro-4-methoxybenzylamino)-4-(5-(trifluoromethyl)-1H-pyrrolo[2,3-b]pyridin-3-yl)pyrimidine-5-carbonitrile] | 3 to 40
N#Cc1cnc(NCc2cccnc2)nc1-c1c[nH]c2ncc(C(F)(F)F)cc12 [Compound I-14, 2-(pyridin-3-ylmethylamino)-4-(5-(trifluoromethyl)-1H-pyrrolo[2,3-b]pyridin-3-yl)pyrimidine-5-carbonitrile] | 3 to 40
C[C@@H](Nc1ncc(C#N)c(-c2c[nH]c3ncc(C(F)(F)F)cc23)n1)c1ccc(C(=O)O)cc1 [Compound I-186, 4-((1R)-1-(5-cyano-4-(5-(trifluoromethyl)-1H-pyrrolo[2,3-b]pyridin-3-yl)pyrimidin-2-ylamino)ethyl)benzoic acid] | < 3
CN(C)c1ccc(CNc2ncc(C#N)c(-c3c[nH]c4ncc(C(F)(F)F)cc34)n2)cc1 [Compound I-59, 2-(4-(dimethylamino)benzylamino)-4-(5-(trifluoromethyl)-1H-pyrrolo[2,3-b]pyridin-3-yl)pyrimidine-5-carbonitrile] | 3 to 40
N#Cc1cnc(NCc2cccc(Cl)c2)nc1-c1c[nH]c2ncc(C(F)(F)F)cc12 [Compound I-13, 2-(3-chlorobenzylamino)-4-(5-(trifluoromethyl)-1H-pyrrolo[2,3-b]pyridin-3-yl)pyrimidine-5-carbonitrile] | > 40
N#Cc1cnc(NC[C@@H](O)CO)nc1-c1c[nH]c2ncc(C(F)(F)F)cc12 [Compound I-115, 2-((R)-2,3-dihydroxypropylamino)-4-(5-(trifluoromethyl)-1H-pyrrolo[2,3-b]pyridin-3-yl)pyrimidine-5-carbonitrile] | 3 to 40
C[C@@H](Nc1ncc(C#N)c(-c2c[nH]c3ncc(C(F)(F)F)cc23)n1)C1CCN(CCO)CC1 [Compound I-215, 2-((R)-1-(1-(2-hydroxyethyl)piperidin-4-yl)ethylamino)-4-(5-(trifluoromethyl)-1H-pyrrolo[2,3-b]pyridin-3-yl)pyrimidine-5-carbonitrile] | < 3
C[C@@H](Nc1ncc(C#N)c(-c2c[nH]c3ncc(C(F)(F)F)cc23)n1)c1ccc(O[C@H]2CCN(C)C2)cc1 [Compound I-146, 2-((R)-1-(4-((S)-1-methylpyrrolidin-3-yloxy)phenyl)ethylamino)-4-(5-(trifluoromethyl)-1H-pyrrolo[2,3-b]pyridin-3-yl)pyrimidine-5-carbonitrile] | < 3
C[C@@H](Nc1ncc(C#N)c(-c2c[nH]c3ncc(C(F)(F)F)cc23)n1)c1ccc(NS(C)(=O)=O)c(F)c1 [Compound I-177, N-(4-((1R)-1-(5-cyano-4-(5-(trifluoromethyl)-1H-pyrrolo[2,3-b]pyridin-3-yl)pyrimidin-2-ylamino)ethyl)-2-fluorophenyl)methanesulfonamide] | < 3
N#Cc1cnc(NC[C@H]2CCCN2)nc1-c1c[nH]c2ncc(C(F)(F)F)cc12 [Compound I-88, 2-((R)-pyrrolidin-2-ylmethylamino)-4-(5-(trifluoromethyl)-1H-pyrrolo[2,3-b]pyridin-3-yl)pyrimidine-5-carbonitrile] | > 40
N#Cc1cnc(NC2CCc3ccccc32)nc1-c1c[nH]c2ncc(C(F)(F)F)cc12 (stereo not drawn) [Compound I-38, 2-(2,3-dihydro-1H-inden-1-ylamino)-4-(5-(trifluoromethyl)-1H-pyrrolo[2,3-b]pyridin-3-yl)pyrimidine-5-carbonitrile] | > 40
N#Cc1cnc(NCCC2CCCCN2)nc1-c1c[nH]c2ncc(C(F)(F)F)cc12 (stereo not drawn) [Compound I-68, 2-(2-(piperidin-2-yl)ethylamino)-4-(5-(trifluoromethyl)-1H-pyrrolo[2,3-b]pyridin-3-yl)pyrimidine-5-carbonitrile] | > 40

Now from value to molecule:

Ki [nM] | SMILES
3 to 40 | CNC(=O)c1cccc(Nc2cnc3[nH]cc(-c4nc(NC(C)C)ncc4C#N)c3c2)c1 [EG7, 3-(3-(5-cyano-2-(isopropylamino)pyrimidin-4-yl)-1H-pyrrolo[2,3-b]pyridin-5-ylamino)-N-methylbenzamide]
< 3 | C[C@@H](Nc1ncc(C#N)c(-c2c[nH]c3ncc(C(F)(F)F)cc23)n1)C1CCN(C(=O)CC#N)CC1 [Compound I-233, 2-((R)-1-(1-(2-cyanoacetyl)piperidin-4-yl)ethylamino)-4-(5-(trifluoromethyl)-1H-pyrrolo[2,3-b]pyridin-3-yl)pyrimidine-5-carbonitrile]
> 40 | N#Cc1cnc(Oc2ccccc2)nc1-c1c[nH]c2ncc(C(F)(F)F)cc12 [EG4, 2-Phenoxy-4-(5-(trifluoromethyl)-1H-pyrrolo[2,3-b]pyridin-3-yl)pyrimidine-5-carbonitrile]
> 40 | C[C@H](Nc1ncc(C#N)c(-c2c[nH]c3ncc(C(F)(F)F)cc23)n1)c1ccc(O[C@@H]2CCN(C)C2)nc1 [Compound I-301, 2-((S)-1-(6-(I-1-methylpyrrolidin-3-yloxy)pyridin-3-yl)ethylamino)-4-(5-(trifluoromethyl)-1H-pyrrolo[2,3-b]pyridin-3-yl)pyrimidine-5-carbonitrile]
3 to 40 | CCN(CC)CCN(C)c1ccc([C@@H](C)Nc2ncc(C#N)c(-c3c[nH]c4ncc(C(F)(F)F)cc34)n2)cn1 [Compound I-287, 2-((R)-1-(6-((2-(diethylamino)ethyl)(methyl)amino)pyridin-3-yl)ethylamino)-4-(5-(trifluoromethyl)-1H-pyrrolo[2,3-b]pyridin-3-yl)pyrimidine-5-carbonitrile]
< 3 | C[C@@H](Nc1ncc(C#N)c(-c2c[nH]c3ncc(C(F)(F)F)cc23)n1)C1CCN(C(=O)[C@@H](N)[C@@H](C)O)CC1 [Compound I-242, 2-((R)-1-(1-((2S,3R)-2-amino-3-hydroxybutanoyl)piperidin-4-yl)ethylamino)-4-(5-(trifluoromethyl)-1H-pyrrolo[2,3-b]pyridin-3-yl)pyrimidine-5-carbonitrile]
> 40 | N#Cc1cnc(Sc2cccc(Cl)c2)nc1-c1c[nH]c2ncc(C(F)(F)F)cc12 [II-6, 2-(3-chlorophenylthio)-4-(5-(trifluoromethyl)-1H-pyrrolo[2,3-b]pyridin-3-yl)pyrimidine-5-carbonitrile]
> 40 | N#Cc1cnc(NC2(C(=O)NCC(F)(F)F)CCCC2)nc1-c1c[nH]c2ncc(Cl)cc12 [IA-7, 1-(4-(5-chloro-1H-pyrrolo[2,3-b]pyridin-3-yl)-5-cyanopyrimidin-2-ylamino)-N-(2,2,2-trifluoroethyl)cyclopentanecarboxamide]
3 to 40 | C[C@@H](Nc1ncc(C#N)c(-c2c[nH]c3ncc(C(F)(F)F)cc23)n1)c1ccc(N2CCC(N(C)C)CC2)nc1 [Compound I-294, 2-((R)-1-(6-(4-(dimethylamino)piperidin-1-yl)pyridin-3-yl)ethylamino)-4-(5-(trifluoromethyl)-1H-pyrrolo[2,3-b]pyridin-3-yl)pyrimidine-5-carbonitrile]
> 40 | CC(C)Oc1ncc(C#N)c(-c2c[nH]c3ncc(C(F)(F)F)cc23)n1 [EG5, 2-isopropoxy-4-(5-(trifluoromethyl)-1H-pyrrolo[2,3-b]pyridin-3-yl)pyrimidine-5-carbonitrile]
3 to 40 | C[C@@H](Nc1ncc(C#N)c(-c2c[nH]c3ncc(C(F)(F)F)cc23)n1)c1ccc(N(C)CCCN(C)C)nc1 [Compound I-283, 2-((R)-1-(6-((3-(dimethylamino)propyl)(methyl)amino)pyridin-3-yl)ethylamino)-4-(5-(trifluoromethyl)-1H-pyrrolo[2,3-b]pyridin-3-yl)pyrimidine-5-carbonitrile]
